EP0085985A1, “Pyridazinone derivatives, pharmaceutically acceptable salts thereof and pharmaceutical compositions comprising said compounds” (MITSUBISHI KASEI CORPORATION, priority 1982, dated 1983)

Key:
[1] = test system: papillary muscle preparation of the dog; assay: Isolated and cross-circulated papillary muscle preparation of the dog (contractility); details: Canis lupus familiaris, read-out: Developed tension (% Increase); for activation at 0.1 mg: Dose 100 µg i.a.; for activation at 0.03 mg: Dose 30 µg i.a.
Procedure: (§1) By way of examples, pharmacological test procedures are described below. • (1) An isolated and cross-circulated papillary muscle preparation of the dog An isolated and cross-circulated papillary muscle preparation of the dog was prepared according to the method of Endo and Hashimoto [see American J. Physiol., 218, 1459-1463, (1970) U. S. A.]. A test compound dissolved in a solvent was applied by proximal intraarterial injection and its effect on contractility of the papillary muscle was determined. The results are shown in Table 1. • (2) Isolated left atrium of the guinea pig Male guinea pigs weighing 200 - 300 g were stunned by a blow on the head and the hearts were quickly excised and placed in a Petri dish containing oxygenated Krebs-Hensleit solution. The left atrium was excised. A fine cotton suture was attached to the left atrial appendage. The tissue was mounted in a 30 ml organ bath filled with Krebs-Hensleit solution at 37°C and oxygenated with 95% 02 - 5% C02 mixture. The cotton thread was then attached to a force- displacement transducer connected to a polygraph. A silver wire electrode connected to a stimulator was placed at the bottom of the preparaticn. Resting tension applied was 0.5 g. The preparation was driven electrically by a stimulator at a rate of 120/min. with suprathreshold rectangular pulses of 1 msec duration. The preparation was left to equilibrate for 1 hour. The test compounds dissolved in vehicle were added to the organ bath and the response was recorded. The results are shown in Table 1. • (3) Intact anesthetized dog preparation Mongrel dogs of either sex weighing 8 - 13 kg were anesthetized with sodium pentobarbital (30 mg/kg i.v.). A tracheal cannula was inserted and artificial respiration was carried out by means of a Harvard respiration. The left femoral vein was cannulated for intravenous bolus injection of the test compounds. The chest was opened at the left 4th intercostal space, the heart was exposed, and a _Walton-Brodie type strain gauge was sutured to the wall of the right ventricle to measure myocadial contractile force. A polyethylene cannula connected to a transducer was introduced into the left ventricle through the ventricular wall and left ventricular pressure was measured. Peak positive rate of rise of left ventricular pressure (dP/dt max) was obtained by an electric differentiator. The test compounds were dissolved in appropriate vehicle and intravenously administered.

[2] = test system: left atrium of the guinea pig; assay: Isolated, electrically driven left atrium of the guinea pig (contractility)
Procedure: as §1

anesthetized dog = assay: Intact anesthetized dog preparation (in situ), cardiac contractility; format: in vivo; details: intravenous
Procedure: as §1

[3] = Acute toxicity, LD50 by the Litchfield-Wilcoxon method; details: in vivo
Procedure: The values for LD50 were determined by the Litchfield-Wilcoxon method [J. T. Litchfield and F. Wilcoxon, J. Pharmacol. exp. Therap., 96, 99 (1949)].

SMILES: CNC(=S)Nc1ccc(-c2ccc(=O)[nH]n2)cc1 [Example 3, 6-(4-N-methylthioureidophenyl)-3-(2H)-pyridazinone]
- activation at 0.1 mg [1]: 8.1%
- activation at 0.3 mg ([1]; Dose 300 µg i.a.): 15.9%
- Developed tension (% Increase) ([2]; Concentration 3 x 10^-5 g/ml): 34.0 % Increase
- Developed tension (% Increase) ([2]; Concentration 10^-5 g/ml): 28.3 % Increase

SMILES: NC(=S)Nc1ccc(C2=NNC(=O)CC2)cc1 [Example 1, 4,5-dihydro-6-(4-thioureidophenyl)-3-(2H)-pyridazinone]
- activation at 0.03 mg [1]: 9.5%
- activation at 0.1 mg [1]: 21.2%
- Developed tension (% Increase) ([2]; Concentration 3 x 10^-5 g/ml): 44.9 % Increase
- Developed tension (% Increase) ([2]; Concentration 10^-5 g/ml): 24.6 % Increase

SMILES: CNC(=S)Nc1ccc(C2=NNC(=O)CC2)cc1 [Example 2, 4,5-dihydro-6-(4-N-methylthioureidophenyl)-3-(2H)-pyridazinone]
- activation at 0.01 mg ([1]; Dose 10 µg i.a.): 8.8%
- activation at 0.03 mg [1]: 47.4%
- Developed tension (% Increase) ([2]; Concentration 3 x 10^-6 g/ml): 32.1 % Increase
- Developed tension (% Increase) ([2]; Concentration 10^-6 g/ml): 28.9 % Increase
- Contractile force of right ventricle (% Increase) (anesthetized dog; Dose 0.03 mg/kg): 65.1 % Increase
- dP/dt max. (% Increase) (anesthetized dog; Dose 0.03 mg/kg): 28.4 % Increase
- Contractile force of right ventricle (% Increase) (anesthetized dog; Dose 0.1 mg/kg): 74.8 % Increase
- dP/dt max. (% Increase) (anesthetized dog; Dose 0.1 mg/kg): 95.4 % Increase
- LD50 ([3]; iv): > 100 mg/kg
- LD50 ([3]; po): > 2200 mg/kg

SMILES: CCNC(=S)Nc1ccc(C2=NNC(=O)CC2)cc1 [Example 4, 4,5-dihydro-6-(4-N-ethylthioureidophenyl)-3-(2H)-pyridazinone]
- activation at 0.03 mg [1]: 8.4%
- activation at 0.1 mg [1]: 11.5%
- Developed tension (% Increase) ([2]; Concentration 3 x 10^-5 g/ml): 102 % Increase
- Developed tension (% Increase) ([2]; Concentration 10^-5 g/ml): 85.6 % Increase
- Contractile force of right ventricle (% Increase) (anesthetized dog; Dose 0.3 mg/kg): 75.8 % Increase
- dP/dt max. (% Increase) (anesthetized dog; Dose 0.3 mg/kg): 49.9 % Increase
- Contractile force of right ventricle (% Increase) (anesthetized dog; Dose 1 mg/kg): 116.2 % Increase
- dP/dt max. (% Increase) (anesthetized dog; Dose 1 mg/kg): 79.5 % Increase
